# Reference: patent US4870097A, “Pharmaceutical use of derivatives of tryptophan” (priority 1984, dated 1989)
# Tested on: tolerance induced by morphine
# Test: Antagonism to the development of tolerance to repeated administration of morphine HCl (tail flick)
# Assay type: in vivo, rats
# Details: day 0; 3 mg/kg i.p. + morphine HCl 3 mg/kg i.p. (row Morphine: alone)
# Experimental: Several of the compounds of the invention were examined to determine any capacity to antagonise the development of tolerance induced by morphine. Groups of six male rats having a weight of about 200-250 were used.
# At intervals of 24 hours from the first treatment (time 0), each animal (except for the control group treated with a physiological solution) received 3 mg/kg of morphine hydrochloride i.p. together with 3 mg/kg i.p. of the compounds indicated (with the exception of the group treated solely with morphine).
# The determination of the threshold for the pain stimulus was effected at 15°, 30', 45' and 60' intervals from the treatment by the "tail flick" test.
row,SMILES,"percentage variation in the latency time, day 0"
1,"O=C(N[C@@H](Cc1c[nH]c2ccccc12)C(=O)O)OCc1ccc(F)cc1 [Compound 1, N-p-fluorocarbobenzoxy-L-tryptophan]",44.25%

# Same assay, conditions: day 1; 3 mg/kg i.p. + morphine HCl 3 mg/kg i.p. (row Morphine: alone)
row,SMILES,"percentage variation in the latency time, day 1"
1,"O=C(N[C@@H](Cc1c[nH]c2ccccc12)C(=O)O)OCc1ccc(F)cc1 [Compound 1, N-p-fluorocarbobenzoxy-L-tryptophan]",69.33%

# Same assay, conditions: day 2; 3 mg/kg i.p. + morphine HCl 3 mg/kg i.p. (row Morphine: alone)
row,SMILES,"percentage variation in the latency time, day 2"
1,"O=C(N[C@@H](Cc1c[nH]c2ccccc12)C(=O)O)OCc1ccc(F)cc1 [Compound 1, N-p-fluorocarbobenzoxy-L-tryptophan]",69.21%

# Same assay, conditions: day 3; 3 mg/kg i.p. + morphine HCl 3 mg/kg i.p. (row Morphine: alone)
row,SMILES,"percentage variation in the latency time, day 3"
1,"O=C(N[C@@H](Cc1c[nH]c2ccccc12)C(=O)O)OCc1ccc(F)cc1 [Compound 1, N-p-fluorocarbobenzoxy-L-tryptophan]",54.03%

# Same assay, conditions: day 4; 3 mg/kg i.p. + morphine HCl 3 mg/kg i.p. (row Morphine: alone)
row,SMILES,"percentage variation in the latency time, day 4"
1,"O=C(N[C@@H](Cc1c[nH]c2ccccc12)C(=O)O)OCc1ccc(F)cc1 [Compound 1, N-p-fluorocarbobenzoxy-L-tryptophan]",21.91%

# Same assay, conditions: day 5; 3 mg/kg i.p. + morphine HCl 3 mg/kg i.p. (row Morphine: alone)
row,SMILES,"percentage variation in the latency time, day 5"
1,"O=C(N[C@@H](Cc1c[nH]c2ccccc12)C(=O)O)OCc1ccc(F)cc1 [Compound 1, N-p-fluorocarbobenzoxy-L-tryptophan]",33.35%

# Same assay, conditions: day 6; 3 mg/kg i.p. + morphine HCl 3 mg/kg i.p. (row Morphine: alone)
row,SMILES,"percentage variation in the latency time, day 6"
1,"O=C(N[C@@H](Cc1c[nH]c2ccccc12)C(=O)O)OCc1ccc(F)cc1 [Compound 1, N-p-fluorocarbobenzoxy-L-tryptophan]",36.44%

# Same assay, conditions: day 7; 3 mg/kg i.p. + morphine HCl 3 mg/kg i.p. (row Morphine: alone)
row,SMILES,"percentage variation in the latency time, day 7"
1,"O=C(N[C@@H](Cc1c[nH]c2ccccc12)C(=O)O)OCc1ccc(F)cc1 [Compound 1, N-p-fluorocarbobenzoxy-L-tryptophan]",16.1%

# Same assay, conditions: days 0-7; 3 mg/kg + morphine (row Morphine: alone)
SMILES,Area subtended (1),regression line % Effect versus Day
"O=C(N[C@@H](Cc1c[nH]c2ccccc12)C(=O)O)OCc1ccc(F)cc1 [Compound 1, N-p-fluorocarbobenzoxy-L-tryptophan]",342.6 Effect-Day,% Effect = - 5.97 Day + 63.96

# Same assay, conditions: days 0-7; 3 mg/kg + morphine; ratio to morphine alone
row,SMILES,Area 1 / Area Morphine
1,"O=C(N[C@@H](Cc1c[nH]c2ccccc12)C(=O)O)OCc1ccc(F)cc1 [Compound 1, N-p-fluorocarbobenzoxy-L-tryptophan]",2.44

# Tested on: guinea pig gall bladder contracted with CCK-8
# Test: Anti-CCK activity on guinea pig gall bladders in vitro
# Assay type: biochemical
# Details: CCK-8 10 ng/ml, concentration antagonising 50% of contracting effect
# Experimental: A longitudinal strip of guinea pig gall bladder is placed in a bath of Krebs for isolated organs at a temperature of 32° C. and oxygenated continuously with an oxygen-CO2 mixture (95-5 V/V).
# The […] contractions are detected by means of a force transducer and recorded.
# The gall bladder is contracted with the use of a CCK-8 solution at a concentration of 10 ng/ml; the antagonistic activity of the compounds of the invention towards the contracting effect of the CCK is determined with the use of different concentrations, the ED50 value, that is the concentration of the compound in mcg/ml capable of antagonising 50% of the contracting effect of the CCK, being determined.
# The results obtained are set out in the following table which gives the compounds tested and the ED50 values which are calculated by the method of regression on a test of at least three experiments for each compound studied.
row,SMILES,"Anti CCK-8 activity, ED50"
1,"O=C(N[C@@H](Cc1c[nH]c2ccccc12)C(=O)O)OCc1ccc(F)cc1 [Compound 1, N-p-fluorocarbobenzoxy-L-tryptophan]",59.9 µg/mL
2,CCCCCc1ccc(C(=O)N[C@@H](Cc2c[nH]c3ccccc23)C(=O)O)cc1 [Compound 25],103.8 µg/mL
3,CCCCCCCc1ccc(C(=O)N[C@@H](Cc2c[nH]c3ccccc23)C(=O)O)cc1 [Compound 27],148.5 µg/mL
4,CCCCCCCCCc1ccc(C(=O)N[C@@H](Cc2c[nH]c3ccccc23)C(=O)O)cc1 [Compound 28],18.9 µg/mL

# Tested on: analgesic activity of morphine
# Test: Tail Flick Test: increase in the analgesic effect of morphine
# Assay type: in vivo, rats
# Details: 10'; compound 10 mg/kg i.p. + morphine 2 mg/kg (row Morphine: alone); ± S.E.
# Experimental: Increase in the analgesic effect of analgesic-narcotic drugs in rats in the Tail Flick Test
# The method is that described by Harris et al. (J. Pharmacol. Exp. Ther. 143 (1964) 141-148).
# Male rats are used which have a weight of about 150-200 g and which have not been fasting. A point is chosen on the tail and this is irradiated by a heat source (75° C.) and the time (in seconds) for which the animal remains without moving its tail is measured.
# A maximum period of time under the heat source of 8 seconds is chosen after which the animal is, in any case, removed in order to avoid tissue damage. The measurement is effected before (controls) and after treatment with the drugs.
# . The percentage variation is calculated for each individual animal by the following formula: [formula] The measurements are carried out 10, 20, 30, 45, 60 and 90 minutes after treatment with the analgesics.
# The results obtained are given in Table 1 which records the groups treated and the doses administered, the
# average percentage variations (calculated on groups of five animals) in […]
row,SMILES,"percentage variation in the latency of the pain sensation, 10'"
1,"O=C(N[C@@H](Cc1c[nH]c2ccccc12)C(=O)O)OCc1ccc(F)cc1 [Compound 1, N-p-fluorocarbobenzoxy-L-tryptophan]",37.6 ± 12.9%
2,CCCCCc1ccc(C(=O)N[C@@H](Cc2c[nH]c3ccccc23)C(=O)O)cc1 [Compound 25],32.9 ± 17.3%
3,CCCCCCCc1ccc(C(=O)N[C@@H](Cc2c[nH]c3ccccc23)C(=O)O)cc1 [Compound 27],73.8 ± 18.1%
4,CCCCCCCCCc1ccc(C(=O)N[C@@H](Cc2c[nH]c3ccccc23)C(=O)O)cc1 [Compound 28],79.5 ± 12.7%

# Same assay, conditions: 20'; compound 10 mg/kg i.p. + morphine 2 mg/kg (row Morphine: alone); ± S.E.
row,SMILES,"percentage variation in the latency of the pain sensation, 20'"
1,"O=C(N[C@@H](Cc1c[nH]c2ccccc12)C(=O)O)OCc1ccc(F)cc1 [Compound 1, N-p-fluorocarbobenzoxy-L-tryptophan]",89.2 ± 7.3%
2,CCCCCc1ccc(C(=O)N[C@@H](Cc2c[nH]c3ccccc23)C(=O)O)cc1 [Compound 25],63.7 ± 19.1%
3,CCCCCCCc1ccc(C(=O)N[C@@H](Cc2c[nH]c3ccccc23)C(=O)O)cc1 [Compound 27],95.2 ± 4.7%
4,CCCCCCCCCc1ccc(C(=O)N[C@@H](Cc2c[nH]c3ccccc23)C(=O)O)cc1 [Compound 28],100.0 ± 0.0%

# Same assay, conditions: 30'; compound 10 mg/kg i.p. + morphine 2 mg/kg (row Morphine: alone); ± S.E.
row,SMILES,"percentage variation in the latency of the pain sensation, 30'"
1,"O=C(N[C@@H](Cc1c[nH]c2ccccc12)C(=O)O)OCc1ccc(F)cc1 [Compound 1, N-p-fluorocarbobenzoxy-L-tryptophan]",96.4 ± 3.5%
2,CCCCCc1ccc(C(=O)N[C@@H](Cc2c[nH]c3ccccc23)C(=O)O)cc1 [Compound 25],97.5 ± 2.5%
3,CCCCCCCc1ccc(C(=O)N[C@@H](Cc2c[nH]c3ccccc23)C(=O)O)cc1 [Compound 27],86.6 ± 9.0%
4,CCCCCCCCCc1ccc(C(=O)N[C@@H](Cc2c[nH]c3ccccc23)C(=O)O)cc1 [Compound 28],98.0 ± 2.0%

# Same assay, conditions: 45'; compound 10 mg/kg i.p. + morphine 2 mg/kg (row Morphine: alone); ± S.E.
row,SMILES,"percentage variation in the latency of the pain sensation, 45'"
1,"O=C(N[C@@H](Cc1c[nH]c2ccccc12)C(=O)O)OCc1ccc(F)cc1 [Compound 1, N-p-fluorocarbobenzoxy-L-tryptophan]",82.6 ± 12.5%
2,CCCCCc1ccc(C(=O)N[C@@H](Cc2c[nH]c3ccccc23)C(=O)O)cc1 [Compound 25],100.0 ± 0.0%
3,CCCCCCCc1ccc(C(=O)N[C@@H](Cc2c[nH]c3ccccc23)C(=O)O)cc1 [Compound 27],87.7 ± 12.3%
4,CCCCCCCCCc1ccc(C(=O)N[C@@H](Cc2c[nH]c3ccccc23)C(=O)O)cc1 [Compound 28],100.0 ± 0.0%

# Same assay, conditions: 60'; compound 10 mg/kg i.p. + morphine 2 mg/kg (row Morphine: alone); ± S.E.
row,SMILES,"percentage variation in the latency of the pain sensation, 60'"
1,"O=C(N[C@@H](Cc1c[nH]c2ccccc12)C(=O)O)OCc1ccc(F)cc1 [Compound 1, N-p-fluorocarbobenzoxy-L-tryptophan]",87.2 ± 7.8%
2,CCCCCc1ccc(C(=O)N[C@@H](Cc2c[nH]c3ccccc23)C(=O)O)cc1 [Compound 25],100.0 ± 0.0%
3,CCCCCCCc1ccc(C(=O)N[C@@H](Cc2c[nH]c3ccccc23)C(=O)O)cc1 [Compound 27],83.8 ± 9.9%
4,CCCCCCCCCc1ccc(C(=O)N[C@@H](Cc2c[nH]c3ccccc23)C(=O)O)cc1 [Compound 28],82.2 ± 17.8%

# Same assay, conditions: 90'; compound 10 mg/kg i.p. + morphine 2 mg/kg (row Morphine: alone); ± S.E.
row,SMILES,"percentage variation in the latency of the pain sensation, 90'"
1,"O=C(N[C@@H](Cc1c[nH]c2ccccc12)C(=O)O)OCc1ccc(F)cc1 [Compound 1, N-p-fluorocarbobenzoxy-L-tryptophan]",40.6 ± 17.7%
2,CCCCCc1ccc(C(=O)N[C@@H](Cc2c[nH]c3ccccc23)C(=O)O)cc1 [Compound 25],82.9 ± 17.1%
3,CCCCCCCc1ccc(C(=O)N[C@@H](Cc2c[nH]c3ccccc23)C(=O)O)cc1 [Compound 27],88.4 ± 8.5%
4,CCCCCCCCCc1ccc(C(=O)N[C@@H](Cc2c[nH]c3ccccc23)C(=O)O)cc1 [Compound 28],78.8 ± 11.4%

# Same assay, conditions: mean 10'-90'; compound 10 mg/kg i.p. + morphine 2 mg/kg (row Morphine: alone)
row,SMILES,M(10'-90') average percentage variation
1,"O=C(N[C@@H](Cc1c[nH]c2ccccc12)C(=O)O)OCc1ccc(F)cc1 [Compound 1, N-p-fluorocarbobenzoxy-L-tryptophan]",72.3%
2,CCCCCc1ccc(C(=O)N[C@@H](Cc2c[nH]c3ccccc23)C(=O)O)cc1 [Compound 25],79.5%
3,CCCCCCCc1ccc(C(=O)N[C@@H](Cc2c[nH]c3ccccc23)C(=O)O)cc1 [Compound 27],85.9%
4,CCCCCCCCCc1ccc(C(=O)N[C@@H](Cc2c[nH]c3ccccc23)C(=O)O)cc1 [Compound 28],89.7%

# Same assay, conditions: rat, in vivo
row,SMILES,Potency ratio relative to morphine alone
1,"O=C(N[C@@H](Cc1c[nH]c2ccccc12)C(=O)O)OCc1ccc(F)cc1 [Compound 1, N-p-fluorocarbobenzoxy-L-tryptophan]",2.43
2,CCCCCc1ccc(C(=O)N[C@@H](Cc2c[nH]c3ccccc23)C(=O)O)cc1 [Compound 25],2.67
3,CCCCCCCc1ccc(C(=O)N[C@@H](Cc2c[nH]c3ccccc23)C(=O)O)cc1 [Compound 27],2.88
4,CCCCCCCCCc1ccc(C(=O)N[C@@H](Cc2c[nH]c3ccccc23)C(=O)O)cc1 [Compound 28],3.01
